The source of these data is US9345791B2, “Ligands for targeting of S1P receptors for in vivo imaging and treatment of diseases” (Westfaelische Wilhelms-Universitaet Muenster, priority 2011, dated 2016).

The term melting point denotes the temperature, or range, at which the solid turns liquid. By Kd is commonly meant the constant that tells how readily two partners part at equilibrium.

Series [1] relates to Lymphocytes (T- and B-cells). The series can be described thus: Immunosuppressive activity in vivo: peripheral blood lymphopenia, flow cytometry. Also on record: species or system mice. The following applies: for B cells / CD4+ / CD8+ / WBC: intraperitoneally at 1.25 microgramm/kg body weight, blood drawn 24 hours later; for WBC: peripheral blood; for immunosuppressive action / effectiveness (in words): summary of table 1 in text. As to the method:
The compounds of the invention were tested for immunosuppressive biological activity in vivo based on the known ability of S1P analogues to induce peripheral blood lymphopenia due to lymphocyte trapping in secondary lymph organs. The immunosuppressive activity of compound 21 (555558) and of compound 27 (555890) was compared with the corresponding activity a non-fluorinated analogue compound 7 (5551091), and non-ω (or close to ω)-fluorinated compounds (compounds 8 (555535) and 12 (555517)) as well as with FTY720 as a standard. The compounds were injected intraperitoneally at 1.25 microgramm/kg body weight in a total volume of 200 microliter. 24 hours later, blood was drawn from the retroorbital plexus in 17.8 mM EDTA as an anti-coagulant. Lymphocytes (T- and B-cells) were analyzed by flow cytometry as following: After lysis of red blood cells by BD Pharm Lyse (Becton Dickinson) in 50 microliter blood, cells were washed, resuspended in 100 microliter FACS buffer (1% BSA in PBS), and antibodies to CD4, CD8 and B220 (Becton Dickinson) were added (1 microliter antibody per sample each) for 30 minutes at room temperature. After 3 washes, cells were then analyzed by flow cytometry in a Gallios Beckman Coulter flow cytometer.

Series [2] deals with G-protein-coupled cell surface receptors (S1PR) designated S1P1-5. The following applies: cited from earlier work.

With `CN(C)c1cccc2c(S(=O)(=O)NCCCCCCCCCCCCCCCCC(N)(CO)CO)cccc12` [SSS846, N-(17-Amino-18-hydroxy-17-(hydroxymethyl)octadecyl)-5-(dimethylamino)naphthalene-1-sulfonamide], the melting point was 72 to 75 °C. For the same compound, in series [1] (cell count), the B cells is 5.32 10^6/mL, the “CD4+” value is given as 0.98 10^6/mL and the “CD8+” value is 0.52 10^6/mL. In series [1] (percentage), the B cells amounted to 57.30%, the “CD4+” value is 10.60% and the “CD8+” value worked out at 5.60%. Besides, in series [1], the WBC is 9.28 10^6/mL.
Compound `NC(CO)(CO)CCCCCCCCCCCCCCCCF` [SSS558, 2-Amino-2-(16-fluorohexadecyl)propan-1,3-diol] gave a melting point of 77 °C. In series [1] (cell count), the B cells is reported as 1.52 0.04 10^6/mL, the “CD4+” value is reported as 0.15 0.08 10^6/mL and the “CD8+” value is given as 0.13 0.04 10^6/mL. For the same compound, the WBC in series [1] is listed as 3.74 0.70 10^6/mL.
`CCCCCCCCCCCCCCC(F)CC(N)(CO)CO.Cl` (stereo not shown) [SSS564, 2-Amino-2-(2-fluorohexadecyl)propan-1,3-diol hydrochloride] gave a melting point of 108 to 110 °C. Besides, in series [1] (cell count), the B cells is reported as 5.52 10^6/mL, the “CD4+” value is 0.65 10^6/mL and the “CD8+” value is recorded as 0.98 10^6/mL. Moreover, in series [1] (percentage), the B cells turned out to be 42.20%, the “CD4+” value is 5.00% and the “CD8+” value is on record as 7.50%. Also, the WBC in series [1] is recorded as 13.07 10^6/mL.
In turn, `CCCCCCCCc1ccc(C(O)CC(N)(CO)CO)cc1` (stereo not shown) [SSS 563, 3-Amino-3-(hydroxymethyl)-1-(4-octylphenyl)butane-1,4-diol] yielded a melting point of 74 to 76 °C.
`CCC/C=C/CC(N)CO` (stereo not shown) [SSS182]: in series [1] (cell count), the B cells is recorded as 2.91 10^6/mL, the “CD4+” value is 0.43 10^6/mL and the “CD8+” value was 0.48 10^6/mL. Further, in series [1] (percentage), the B cells amounted to 42.20%, the “CD4+” value stood at 6.30% and the “CD8+” value was determined as 7.00%. The WBC in series [1] was 6.90 10^6/mL.
Regarding `CCCCCCCCCCCCC/C=C/[C@@H](O)[C@@H](N)COP(=O)(O)O` [Compound S1P, Sphingosine-1-phosphate], the Kd in series [2] is 8 to 20 nM.
For the compound `CCCCCCCCCCCCC/C=C(\F)CC(N)(CO)CO` [SSS862, (Z)-2-Amino-2-(2-fluorohexadec-2-en-1-yl)propane-1,3-diol], the melting point fell in the range of 68 to 70 °C. In series [1] (cell count), the B cells is listed as 3.23 10^6/mL, the “CD4+” value is on record as 0.27 10^6/mL and the “CD8+” value is recorded as 0.41 10^6/mL. Moreover, in series [1] (percentage), the B cells amounted to 60.90%, the “CD4+” value is 5.00% and the “CD8+” value came out at 7.80%. In series [1], the WBC was 5.31 10^6/mL.
`CCCCCCCCCCCCC/C=C(/F)CC(N)(CO)CO` [SSS864, (E)-2-Amino-2-(2-fluorohexadec-2-en-1-yl)propane-1,3-diol]: the melting point stood at 74 °C. Moreover, in series [1] (cell count), the B cells was 3.41 10^6/mL, the “CD4+” value was 0.28 10^6/mL and the “CD8+” value is on record as 0.37 10^6/mL. In series [1] (percentage), the B cells was determined as 64.70%, the “CD4+” value was 5.40% and the “CD8+” value amounted to 7.00%. Further, in series [1], the WBC is 5.27 10^6/mL.
The compound `CCCCCCCCCCCCCCC(F)CC(N)(CO)CO` (stereo not shown) [SSS517, 2-Amino-2-(2-fluorohexadecyl)propan-1,3-diol] registered a melting point of 96 to 98 °C. Further, in series [1] (cell count), the B cells is listed as 4.81 10^6/mL, the “CD4+” value was 0.54 10^6/mL and the “CD8+” value is recorded as 0.60 10^6/mL. Further, in series [1] (percentage), the B cells is reported as 42.40%, the “CD4+” value turned out to be 4.80% and the “CD8+” value is on record as 5.30%. In series [1], the WBC is listed as 11.35 10^6/mL and the “immunosuppressive action / effectiveness (in words)” value is listed as “very moderate immunosuppressive action”.
In turn, `NC(CO)(CO)CCc1ccc(CCCCCCF)cc1` [SSS 944, 2-Amino-2-(4-(6-fluorohexyl)phenethyl)propane-1,3-diol] displayed a melting point of 108 °C.
Consider `CCCCCCCCCCCCCCC(N)(CO)CO` [SSS943, 2-Amino-2-tetradecylpropane-1,3-diol], for which, in series [1] (cell count), the B cells is 0.60 10^6/mL, the “CD4+” value is recorded as 0.04 10^6/mL and the “CD8+” value is 0.04 10^6/mL. Further, in series [1] (percentage), the B cells is given as 35.21%, the “CD4+” value came out at 2.25% and the “CD8+” value was 2.35%. The WBC in series [1] is 1.73 10^6/mL.
In the case of `CCCCCCCCc1ccc(CCC(N)(CO)CO)cc1` [FTY 720, 2-Amino-2-(4-octylphenethyl)propane-1,3-diol, reference compound], in series [1] (cell count), the B cells is 0.61 10^6/mL, the “CD4+” value was 0.02 10^6/mL and the “CD8+” value is given as 0.04 10^6/mL. Further, in series [1] (percentage), the B cells was 20.08%, the “CD4+” value came to 1.10% and the “CD8+” value is given as 0.30%. Moreover, the WBC in series [1] was 3.69 10^6/mL.
Compound `CCCCCCCCCCCCC/C=C/CC(N)(CO)CO` [SSS822, (E)-2-Amino-2-(hexadec-2-en-1-yl)propane-1,3-diol] came in with a melting point of 57 °C. Moreover, in series [1] (cell count), the B cells is given as 1.17 0.33 10^6/mL, the “CD4+” value is on record as 0.10 0.01 10^6/mL and the “CD8+” value was 0.12 0.05 10^6/mL. The WBC in series [1] is recorded as 5.02 1.04 10^6/mL.
In the case of `CCC/C=C/CC(N)COP(=O)(O)O` (stereo not shown) [Compound B1088], in series [1] (cell count), the B cells is on record as 2.76 10^6/mL, the “CD4+” value is given as 0.34 10^6/mL and the “CD8+” value is recorded as 0.49 10^6/mL. Further, in series [1] (percentage), the B cells was 38.60%, the “CD4+” value is 4.80% and the “CD8+” value amounted to 6.90%. In addition, the WBC in series [1] was 7.15 10^6/mL.
For the compound `CCCCCCCCCCCCCCCCC(N)(CO)CO` [SSS1091, 2-Amino-2-hexadecylpropane-1,3-diol], in series [1] (cell count), the B cells is 1.27 0.26 10^6/mL, the “CD4+” value was 0.09 0.02 10^6/mL and the “CD8+” value was 0.08 0.01 10^6/mL. In series [1], the WBC is on record as 4.14 0.60 10^6/mL.
As for `CCC/C=C(\F)CC(N)COP(=O)(O)O` (stereo not shown) [Compound B1087], in series [1] (cell count), the B cells is listed as 2.49 10^6/mL, the “CD4+” value is reported as 0.42 10^6/mL and the “CD8+” value was 0.59 10^6/mL. Also, in series [1] (percentage), the B cells is reported as 35.20%, the “CD4+” value amounted to 5.90% and the “CD8+” value came to 8.40%. The WBC in series [1] is listed as 7.06 10^6/mL.
Consider `CCCCCCCCCCCCCCCCC(N)(CO)CF` (stereo not shown) [SSS535, 2-Amino-2-(fluoromethyl)octadecan-1-ol], for which the melting point turned out to be 52 °C. Besides, in series [1] (cell count), the B cells is listed as 3.54 10^6/mL, the “CD4+” value is given as 0.42 10^6/mL and the “CD8+” value is given as 0.39 10^6/mL. In series [1] (percentage), the B cells worked out at 50.20%, the “CD4+” value was 6.00% and the “CD8+” value was found to be 5.50%. Moreover, in series [1], the WBC was 7.05 10^6/mL and the “immunosuppressive action / effectiveness (in words)” value is listed as “diminishes effectiveness”.
Compound `NC(CO)(CO)CCCCCCCCCCCCCCCF` [SSS890, 2-Amino-2-(15-fluoropentadecyl)propane-1,3-diol] displayed a melting point of 85 °C.
